Where two headings read alike, the source gives them in different places.
Experiments:
[1] = system: colorectal cancer (6 cell lines); experiment: CellTiter-Glo Viability Assay, colorectal cancer; assay type: cell-based; details: Homo sapiens, inhibition of cancer cell proliferation
[2] = system: prostate cancer (5 cell lines); experiment: CellTiter-Glo Viability Assay, prostate cancer; assay type: cell-based; details: Homo sapiens
CLK3 = CLK3 (Homo sapiens, UniProt P49761); experiment: CLK3 kinase activity assay (Z-lyte, Ser/Thr 18 peptide)
Chain of CLK3 (P49761 whole entry): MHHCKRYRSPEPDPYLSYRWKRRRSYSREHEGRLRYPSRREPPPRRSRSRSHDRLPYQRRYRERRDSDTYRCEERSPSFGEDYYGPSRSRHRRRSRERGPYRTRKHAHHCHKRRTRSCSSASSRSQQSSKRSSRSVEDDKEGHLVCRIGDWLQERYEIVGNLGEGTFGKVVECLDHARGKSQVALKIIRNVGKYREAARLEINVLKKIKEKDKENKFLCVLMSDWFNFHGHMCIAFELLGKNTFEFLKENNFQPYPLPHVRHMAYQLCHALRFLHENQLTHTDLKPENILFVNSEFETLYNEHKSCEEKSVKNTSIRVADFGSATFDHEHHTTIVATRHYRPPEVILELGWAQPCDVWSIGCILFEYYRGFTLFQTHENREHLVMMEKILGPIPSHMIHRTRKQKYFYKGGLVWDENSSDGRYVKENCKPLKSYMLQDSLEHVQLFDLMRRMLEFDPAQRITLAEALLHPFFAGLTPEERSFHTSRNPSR

[3] = system: lung cancer (4 cell lines); experiment: CellTiter-Glo Viability Assay, lung cancer; assay type: cell-based; details: Homo sapiens, inhibition of cancer cell proliferation
[4] = system: ovarian cancer (4 cell lines); experiment: CellTiter-Glo Viability Assay, ovarian cancer; assay type: cell-based; details: Homo sapiens, inhibition of cancer cell proliferation
CLK2 = molecular target: T1, CLK2 (Homo sapiens, UniProt P49760); experiment: CLK2 kinase activity assay (Z-lyte, Ser/Thr 6 peptide); assay type: biochemical; details: recombinant CLK2 kinase, ATP 60 μM; read-out: EC50
T1 construct: purchased Thermo Fisher (Life Technologies), Z'-LYTE Kinase Assay Kits
T1 sequence (P49760 whole entry): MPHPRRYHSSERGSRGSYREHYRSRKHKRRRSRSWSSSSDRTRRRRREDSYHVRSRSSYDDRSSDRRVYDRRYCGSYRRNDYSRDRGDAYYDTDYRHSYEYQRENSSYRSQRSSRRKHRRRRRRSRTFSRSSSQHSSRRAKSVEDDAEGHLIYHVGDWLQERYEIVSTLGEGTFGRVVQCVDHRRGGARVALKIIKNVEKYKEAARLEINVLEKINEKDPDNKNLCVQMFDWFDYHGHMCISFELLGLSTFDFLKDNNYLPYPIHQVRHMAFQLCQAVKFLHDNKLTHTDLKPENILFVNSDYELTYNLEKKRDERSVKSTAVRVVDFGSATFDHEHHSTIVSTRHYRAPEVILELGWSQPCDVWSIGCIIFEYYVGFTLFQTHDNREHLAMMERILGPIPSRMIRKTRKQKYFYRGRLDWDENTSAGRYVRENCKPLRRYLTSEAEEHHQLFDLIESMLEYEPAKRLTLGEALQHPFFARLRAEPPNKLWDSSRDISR
Description: All reactions were performed in duplicate.

[5] = system: liver cancer (3 cell lines); experiment: CellTiter-Glo Viability Assay, liver cancer; assay type: cell-based; details: Homo sapiens, inhibition of cancer cell proliferation
[6] = system: pancreatic cancer (8 cell lines); experiment: CellTiter-Glo Viability Assay, pancreatic cancer; assay type: cell-based; details: Homo sapiens, inhibition of cancer cell proliferation
[7] = system: haematopoietic & lymphoid tumors (13 cell lines); experiment: CellTiter-Glo Viability Assay, haematopoietic & lymphoid tumors; assay type: cell-based; details: Homo sapiens, inhibition of cancer cell proliferation
all 50 cell lines = experiment: CellTiter-Glo Viability Assay, average across all cell lines; assay type: cell-based; details: Homo sapiens; across all 50 cell lines; read-out: average EC50 for inhibition of cancer cell proliferation
Method in brief: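 Cancer cell lines of several tumour types plated at 300-3,000 cells/well and exposed to compound in duplicate for four days at 37° C, 5% CO2, with DMSO-treated controls. Viability read by CellTiter-Glo luminescence (ATP content); EC50 derived from dose-response curves.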

MDA-MB-231-Luc = experiment: CellTiter-Glo Viability Assay, breast cancer; assay type: cell-based; details: Homo sapiens, 96 h; MDA-MB-231-Luc, breast cancer, four days; read-out: EC50
ZR-75-1 = experiment: CellTiter-Glo Viability Assay, breast cancer; assay type: cell-based; details: Homo sapiens, 96 h; ZR-75-1, breast cancer, four days; read-out: EC50
T47D = experiment: CellTiter-Glo Viability Assay, breast cancer; assay type: cell-based; details: Homo sapiens, 96 h, breast cancer, four days, read-out: EC50
HCC1599 = experiment: CellTiter-Glo Viability Assay, breast cancer; assay type: cell-based; details: Homo sapiens, 96 h; HCC1599, breast cancer, four days; read-out: EC50
BT-549 = experiment: CellTiter-Glo Viability Assay, breast cancer; assay type: cell-based; details: Homo sapiens, 96 h; BT-549, breast cancer, four days; read-out: EC50
MCF7 = experiment: CellTiter-Glo Viability Assay, breast cancer; assay type: cell-based; details: Homo sapiens, 96 h; MCF7, breast cancer, four days; read-out: EC50
CAMA1 = experiment: CellTiter-Glo Viability Assay, breast cancer; assay type: cell-based; details: Homo sapiens, CAMA-1, 96 h; CAMA1, breast cancer, four days; read-out: EC50
DU4475 = experiment: CellTiter-Glo Viability Assay, breast cancer; assay type: cell-based; details: Homo sapiens, DU-4475, 96 h; DU4475, breast cancer, four days; read-out: EC50

For `CN(C)C1CCN(c2cc(C(=O)Nc3ncc4ccc(-c5cn(C)nn5)cc4n3)ccn2)CC1` [Compound 80], the EC50 ([1]; HCT-116, HCT116 cell line, read-out: Colorectal cancer, EC50 (μM) HCT116) was 2.06 µM, the EC50 ([1]; HT-29, HT29 cell line, read-out: Colorectal cancer, EC50 (μM) HT29) was 6.22 µM and the EC50 ([1]; SW-620, SW620 cell line, read-out: Colorectal cancer, EC50 (μM) SW620) was 1.4 µM. The EC50 ([1]; DLD-1 cell line, read-out: Colorectal cancer, EC50 (μM) DLD-1) was 7.22 µM, the EC50 ([1]; SW48 cell line, read-out: Colorectal cancer, EC50 (μM) SW48) was 0.926 µM and the EC50 ([1]; SW480 cell line, read-out: Colorectal cancer, EC50 (μM) SW480) was 1.51 µM. For the same compound, the EC50 ([2]; DU-145, read-out: Prostate cancer EC50 Du-145) was 5.78 µM, the EC50 ([2]; PC-3, PC3 cell line, inhibition of cancer cell proliferation, read-out: Prostate cancer EC50 PC3) was 3.98 µM and the EC50 ([2]; 22Rv1 cell line, inhibition of cancer cell proliferation, read-out: Prostate cancer EC50 22Rv1) was 2.85 µM. For the same compound, the EC50 ([2]; LNCap clone FGC cell line, inhibition of cancer cell proliferation, read-out: Prostate cancer EC50 LNCap clone FGC) was 9.12 µM, the EC50 ([2]; VCaP (Sigma) cell line, inhibition of cancer cell proliferation, read-out: Prostate cancer EC50 VCaP (Sigma)) was 6.02 µM and the EC50 (CLK3) was 0.0386 µM. For the same compound, the EC50 ([3]; A-427, A427 cell line, read-out: Lung cancer, EC50 (μM) A427) was 2.81 µM, the EC50 ([3]; HCC78, HCC-78 cell line, read-out: Lung cancer, EC50 (μM) HCC-78) was 5.46 µM and the EC50 ([3]; NCI-H460 cell line, read-out: Lung cancer, EC50 (μM) NCI-H460) was greater than 10 µM. For the same compound, the EC50 ([3]; NCI-H522 cell line, read-out: Lung cancer, EC50 (μM) NCI-H522) was 1.59 µM, the EC50 ([4]; PA-1, PA1 cell line, read-out: Ovarian cancer, EC50 (μM) PA1) was 3.18 µM and the EC50 ([4]; TOV112D, TOV-112D cell line, read-out: Ovarian cancer, EC50 (μM) TOV-112D) was 1.97 µM. For the same compound, the EC50 ([4]; OV-90 cell line, read-out: Ovarian cancer, EC50 (μM) OV-90) was 5.6 µM, the EC50 ([4]; OVCAR-3 cell line, read-out: Ovarian cancer, EC50 (μM) OVCAR-3) was 1.41 µM and the EC50 (CLK2) was 0.0089 µM. It also gave an EC50 ([5]; SNU-398, SNU398 cell line, read-out: Liver cancer, EC50 SNU398) of 0.631 µM, an EC50 ([5]; HEPG2 cell line, read-out: Liver cancer, EC50 HEPG2) of 3.68 µM and an EC50 ([5]; PLC/PRF/5 cell line, read-out: Liver cancer, EC50 PLC/PRF/5) greater than 10 µM. The EC50 ([6]; BXPC-3, BxPC3 cell line, read-out: Pancreatic cancer, EC50 BxPC3) was 9.58 µM, the EC50 ([6]; CAPAN-1, Capan1 cell line, read-out: Pancreatic cancer, EC50 Capan1) was 3.72 µM and the EC50 ([6]; Capan-2, Capan2 cell line, read-out: Pancreatic cancer, EC50 Capan2) was 7.5 µM. It also gave an EC50 ([6]; MIA PaCa-2 cell line, read-out: Pancreatic cancer, EC50 MIA PaCa-2) of 1.11 µM, an EC50 ([6]; PANC 05.04 cell line, read-out: Pancreatic cancer, EC50 PANC 05.04) of 5.11 µM and an EC50 ([6]; PANC-1 cell line, read-out: Pancreatic cancer, EC50 PANC-1) of 8.91 µM. The EC50 ([6]; UPAFII cell line, read-out: Pancreatic cancer, EC50 UPAFII) was 3.51 µM, the EC50 ([7]; DND41, DND-41 cell line, read-out: Haematopoietic & Lymphoid tumors, EC50 (μM) DND-41) was 2.11 µM and the EC50 ([7]; MV4-11, MV-4-11 cell line, read-out: Haematopoietic & Lymphoid tumors, EC50 (μM) MV-4-11) was 0.879 µM. For the same compound, the EC50 ([7]; Rec1, REC-1 cell line, read-out: Haematopoietic & Lymphoid tumors, EC50 (μM) REC-1) was 2.45 µM, the EC50 ([7]; SU-DHL-4, SUDHL4 cell line, read-out: Haematopoietic & Lymphoid tumors, EC50 (μM) SUDHL4) was 2.27 µM and the EC50 ([7]; HL-60 cell line, read-out: Haematopoietic & Lymphoid tumors, EC50 (μM) HL-60) was 3.25 µM. It also gave an EC50 ([7]; JM1 cell line, read-out: Haematopoietic & Lymphoid tumors, EC50 (μM) JM1) of 1.19 µM, an EC50 ([7]; JURKAT, Clone E6-1 cell line, read-out: Haematopoietic & Lymphoid tumors, EC50 (μM) JURKAT, Clone E6-1) of 4.05 µM and an EC50 ([7]; JeKo-1 cell line, read-out: Haematopoietic & Lymphoid tumors, EC50 (μM) JeKo-1) of 0.731 µM. For the same compound, the EC50 ([7]; KASUMI-1 cell line, read-out: Haematopoietic & Lymphoid tumors, EC50 (μM) KASUMI-1) was 3.05 µM, the EC50 ([7]; Loucy cell line, read-out: Haematopoietic & Lymphoid tumors, EC50 (μM) Loucy) was 1.6 µM and the EC50 ([7]; MOLT-4 cell line, read-out: Haematopoietic & Lymphoid tumors, EC50 (μM) MOLT-4) was 3.61 µM. It also gave an EC50 ([7]; TF-1 cell line, read-out: Haematopoietic & Lymphoid tumors, EC50 (μM) TF-1) greater than 10 µM, an EC50 ([7]; TOLEDO cell line, read-out: Haematopoietic & Lymphoid tumors, EC50 (μM) TOLEDO) of 2.8 µM and an EC50 (all 50 cell lines) of 4.07 µM. The EC50 (MDA-MB-231-Luc) was 4.06 µM, the EC50 (ZR-75-1) was 4.03 µM and the EC50 (T47D) was 4.62 µM. The EC50 (HCC1599) was 2.19 µM, the EC50 (BT-549) was 4.5 µM and the EC50 (MCF7) was 6.64 µM. It also gave an EC50 (CAMA1) of 3.09 µM and an EC50 (DU4475) of 3.21 µM.
